Assay results: the supplement of paper PMC10307832

Legend:
Experiment in all cases: relative viability (nuclei count vs DMSO), 5 days (fraction); higher = more cells survive
FH535 + Phenformin = compound: CC1=C(C=CC(=C1)[N+](=O)[O-])NS(=O)(=O)C2=C(C=CC(=C2)Cl)Cl [FH535] + N=C(N)NC(=N)NCCc1ccccc1 [Phenformin] (partner 250 µM)
How it was run: (§1)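 Values are medians from duplicate plates. Each reflects relative viability, defined as the nuclei count of treated wells over that of vehicle wells. Lung cancer cell lines in 1536-well plates were pin-tool dosed one day after seeding with one drug alone or with a fixed anchor-drug dose plus five library-drug doses (not always all listed) in √10 steps, then fixed, stained and imaged at 4× after 5 days.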

FH535 + Tozasertib = compound: CC1=C(C=CC(=C1)[N+](=O)[O-])NS(=O)(=O)C2=C(C=CC(=C2)Cl)Cl [FH535] + Cc1cc(Nc2cc(N3CCN(C)CC3)nc(Sc3ccc(NC(=O)C4CC4)cc3)n2)n[nH]1 [Tozasertib] (partner 0.1 µM)
How it was run: as §1

FH535 + Bortezomib = compound: CC1=C(C=CC(=C1)[N+](=O)[O-])NS(=O)(=O)C2=C(C=CC(=C2)Cl)Cl [FH535] + CC(C)C[C@H](NC(=O)[C@H](Cc1ccccc1)NC(=O)c1cnccn1)B(O)O [Bortezomib] (partner 0.002 µM)
How it was run: as §1

FH535 + Linsitinib = compound: CC1=C(C=CC(=C1)[N+](=O)[O-])NS(=O)(=O)C2=C(C=CC(=C2)Cl)Cl [FH535] + C[C@]1(O)C[C@@H](c2nc(-c3ccc4ccc(-c5ccccc5)nc4c3)c3c(N)nccn32)C1 [Linsitinib] (partner 1 µM)
How it was run: as §1

FH535 + Pemetrexed = compound: CC1=C(C=CC(=C1)[N+](=O)[O-])NS(=O)(=O)C2=C(C=CC(=C2)Cl)Cl [FH535] + Nc1nc2[nH]cc(CCc3ccc(C(=O)N[C@@H](CCC(=O)O)C(=O)O)cc3)c2c(=O)[nH]1 [Pemetrexed] (partner 0.2 µM)
How it was run: as §1

Row | Cell Line | relative viability (FH535 + Phenformin; first compound 0.04 µM) | relative viability (FH535 + Phenformin; first compound 0.1265 µM) | relative viability (FH535 + Phenformin; first compound 0.4 µM) | relative viability (FH535 + Phenformin; first compound 1.265 µM) | relative viability (FH535 + Tozasertib; first compound 0.04 µM) | relative viability (FH535 + Tozasertib; first compound 0.1265 µM) | relative viability (FH535 + Tozasertib; first compound 0.4 µM) | relative viability (FH535 + Tozasertib; first compound 1.265 µM) | relative viability (FH535 + Bortezomib; first compound 0.04 µM) | relative viability (FH535 + Bortezomib; first compound 0.1265 µM) | relative viability (FH535 + Bortezomib; first compound 0.4 µM) | relative viability (FH535 + Bortezomib; first compound 1.265 µM) | relative viability (FH535 + Linsitinib; first compound 0.04 µM) | relative viability (FH535 + Linsitinib; first compound 0.1265 µM) | relative viability (FH535 + Linsitinib; first compound 0.4 µM) | relative viability (FH535 + Linsitinib; first compound 1.265 µM) | relative viability (FH535 + Pemetrexed; first compound 0.04 µM) | relative viability (FH535 + Pemetrexed; first compound 0.1265 µM) | relative viability (FH535 + Pemetrexed; first compound 0.4 µM) | relative viability (FH535 + Pemetrexed; first compound 1.265 µM)
1 | NCI-H1651 | 0.318 | 0.319 | 0.221 | 0.188 | 0.753 | 0.639 | 0.633 | 0.64 | 0.876 | 0.911 | 0.889 | 0.779 | 0.999 | 0.949 | 0.942 | 0.731 | 0.568 | 0.595 | 0.551 | 0.553
2 | HARA | 0.398 | 0.368 | 0.269 | 0.205 | 0.0901 | 0.133 | 0.128 | 0.0965 | 1.03 | 0.987 | 1.11 | 0.73 | 0.774 | 0.889 | 1.03 | 0.584 | 0.258 | 0.254 | 0.234 | 0.286
3 | H3255 | 0.31 | 0.423 | 0.374 | 0.32 | 0.62 | 0.716 | 0.659 | 0.452 | 0.614 | 0.827 | 0.708 | 0.409 | 0.87 | 1.04 | 0.884 | 0.727 | 0.58 | 0.564 | 0.545 | 0.577
4 | NCI-H460 | 0.517 | 0.535 | 0.399 | 0.244 | 0.219 | 0.5 | 0.382 | 0.21 | 0.984 | 1.24 | 1.16 | 0.668 | 0.902 | 0.891 | 0.791 | 0.678 | 0.0603 | 0.0608 | 0.0625 | 0.0646
5 | CAL-12T | 0.515 | 0.514 | 0.403 | 0.316 | 0.288 | 0.324 | 0.243 | 0.212 | 0.846 | 0.936 | 0.626 | 0.268 | 0.871 | 0.796 | 0.712 | 0.598 | 1.24 | 1.38 | 1.04 | 0.877
6 | NCI-H1437 | 0.289 | 0.309 | 0.29 | 0.171 | 0.425 | 0.404 | 0.358 | 0.22 | 0.427 | 0.624 | 0.303 | 0.286 | 1.02 | 0.962 | 0.879 | 0.421 | 0.297 | 0.328 | 0.284 | 0.2
7 | HOP-62 | 0.682 | 0.668 | 0.552 | 0.401 | 0.407 | 0.362 | 0.348 | 0.412 | 0.579 | 0.949 | 0.768 | 0.682 | 1.01 | 1.09 | 1.07 | 0.713 | 0.322 | 0.267 | 0.345 | 0.35
8 | EPLC-272H | 0.242 | 0.352 | 0.234 | 0.159 | 0.148 | 0.249 | 0.194 | 0.214 | 0.788 | 0.967 | 0.925 | 0.848 | 1.04 | 1.17 | 1.03 | 1.05 | 0.301 | 0.366 | 0.353 | 0.308
9 | COR-L 105 | 0.411 | 0.461 | 0.405 | 0.382 | 0.359 | 0.339 | 0.337 | 0.304 | 0.804 | 0.822 | 0.653 | 0.675 | 0.903 | 0.933 | 0.894 | 0.91 | 1.16 | 1.08 | 0.943 | 0.968
10 | HCC-366 | 0.607 | 0.522 | 0.48 | 0.41 | 0.0788 | 0.106 | 0.123 | 0.0854 | 1.1 | 1.12 | 0.987 | 0.925 | 0.578 | 0.852 | 0.514 | 0.465 | 0.169 | 0.134 | 0.174 | 0.159
11 | HCC-44 | 0.242 | 0.191 | 0.125 | 0.176 | 0.916 | 1 | 0.933 | 0.756 | 0.952 | 0.811 | 0.856 | 0.652 | 0.704 | 0.647 | 0.705 | 0.469 | 0.647 | 0.687 | 0.604 | 0.628
12 | NCI-H2009 | 0.486 | 0.447 | 0.402 | 0.179 | 0.777 | 0.806 | 0.747 | 0.631 | 0.92 | 0.984 | 0.896 | 0.58 | 1.2 | 1.09 | 1.13 | 1.05 | 1 | 1 | 0.955 | 0.836
13 | NCI-H2347 | 0.409 | 0.332 | 0.425 | 0.27 | 0.633 | 0.461 | 0.522 | 0.631 | 0.843 | 1 | 1.02 | 0.627 | 1.02 | 1.05 | 0.902 | 0.812 | 0.523 | 0.405 | 0.43 | 0.41
14 | NCI-H838 | 0.512 | 0.722 | 0.445 | 0.309 | 0.286 | 0.246 | 0.272 | 0.19 | 0.701 | 0.713 | 0.694 | 0.575 | 0.987 | 1.03 | 0.938 | 0.908 | 0.249 | 0.233 | 0.216 | 0.204
15 | NCI-H1355 | 0.425 | 0.42 | 0.353 | 0.269 | 0.507 | 0.584 | 0.557 | 0.399 | 1.09 | 1.2 | 1.15 | 1.03 | 0.745 | 0.822 | 0.78 | 0.633 | 1.03 | 1.05 | 0.984 | 0.91
